From PMC12866986 (European journal of medicinal chemistry, 2026)
Where “and” joins values, the source holds several entries; their conditions need not be identical. Equal values may be shown once. Read-outs that look alike come from different tables or passages of the source.

What was measured:
FAK = FAK (Homo sapiens, UniProt Q05397); conditions: 1 h, relative to vehicle control, n = 8 measurements
[1] = PBS at pH = 7.4
Caco-2 cells = conditions: for wound closure with proliferation inhibited: 100 nM, 4 mM hydroxyurea, 24 h, Caco-2 monolayers, n=33–35, p<0.05 vs vehicle; for EC50: read-out: EC50 (nM), ± SEM, wound healing, Caco-2 assay
[2] = for Clint: intrinsic clearance; for MLM t1/2: mouse liver microsomes
hERG = hERG (Homo sapiens, UniProt Q12809); conditions: at 30 μM
hERG, sequence (Q12809 whole entry): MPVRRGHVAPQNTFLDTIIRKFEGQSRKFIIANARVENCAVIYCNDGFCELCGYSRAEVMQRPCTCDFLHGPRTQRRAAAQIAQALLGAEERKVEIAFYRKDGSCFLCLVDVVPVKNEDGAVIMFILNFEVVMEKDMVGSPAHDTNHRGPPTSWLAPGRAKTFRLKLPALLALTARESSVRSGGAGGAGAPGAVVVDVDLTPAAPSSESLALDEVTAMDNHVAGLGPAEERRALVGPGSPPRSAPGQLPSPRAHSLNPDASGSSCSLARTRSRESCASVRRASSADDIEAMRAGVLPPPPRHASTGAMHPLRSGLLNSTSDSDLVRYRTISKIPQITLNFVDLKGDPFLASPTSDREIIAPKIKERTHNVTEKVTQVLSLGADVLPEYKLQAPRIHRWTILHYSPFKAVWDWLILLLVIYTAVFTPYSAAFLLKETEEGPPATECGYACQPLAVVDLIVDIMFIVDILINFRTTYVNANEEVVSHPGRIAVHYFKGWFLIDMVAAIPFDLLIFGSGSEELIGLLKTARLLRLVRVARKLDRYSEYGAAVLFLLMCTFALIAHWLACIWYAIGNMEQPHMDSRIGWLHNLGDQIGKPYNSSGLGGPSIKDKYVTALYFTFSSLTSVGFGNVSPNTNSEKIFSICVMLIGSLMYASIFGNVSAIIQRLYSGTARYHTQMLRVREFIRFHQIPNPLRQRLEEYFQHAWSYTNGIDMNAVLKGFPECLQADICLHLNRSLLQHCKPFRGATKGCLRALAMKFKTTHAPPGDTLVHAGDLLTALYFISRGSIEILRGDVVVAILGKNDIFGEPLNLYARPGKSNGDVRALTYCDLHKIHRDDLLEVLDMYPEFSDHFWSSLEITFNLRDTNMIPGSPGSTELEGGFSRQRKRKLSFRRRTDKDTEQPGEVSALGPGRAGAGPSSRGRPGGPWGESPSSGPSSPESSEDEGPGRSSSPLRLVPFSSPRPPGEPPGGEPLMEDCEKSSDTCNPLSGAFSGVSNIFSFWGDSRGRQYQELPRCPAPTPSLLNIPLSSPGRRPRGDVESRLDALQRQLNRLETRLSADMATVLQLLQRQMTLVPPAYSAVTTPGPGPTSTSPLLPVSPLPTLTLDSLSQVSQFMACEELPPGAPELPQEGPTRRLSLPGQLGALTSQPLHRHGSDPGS

FAK, sequence (Q05397 whole entry): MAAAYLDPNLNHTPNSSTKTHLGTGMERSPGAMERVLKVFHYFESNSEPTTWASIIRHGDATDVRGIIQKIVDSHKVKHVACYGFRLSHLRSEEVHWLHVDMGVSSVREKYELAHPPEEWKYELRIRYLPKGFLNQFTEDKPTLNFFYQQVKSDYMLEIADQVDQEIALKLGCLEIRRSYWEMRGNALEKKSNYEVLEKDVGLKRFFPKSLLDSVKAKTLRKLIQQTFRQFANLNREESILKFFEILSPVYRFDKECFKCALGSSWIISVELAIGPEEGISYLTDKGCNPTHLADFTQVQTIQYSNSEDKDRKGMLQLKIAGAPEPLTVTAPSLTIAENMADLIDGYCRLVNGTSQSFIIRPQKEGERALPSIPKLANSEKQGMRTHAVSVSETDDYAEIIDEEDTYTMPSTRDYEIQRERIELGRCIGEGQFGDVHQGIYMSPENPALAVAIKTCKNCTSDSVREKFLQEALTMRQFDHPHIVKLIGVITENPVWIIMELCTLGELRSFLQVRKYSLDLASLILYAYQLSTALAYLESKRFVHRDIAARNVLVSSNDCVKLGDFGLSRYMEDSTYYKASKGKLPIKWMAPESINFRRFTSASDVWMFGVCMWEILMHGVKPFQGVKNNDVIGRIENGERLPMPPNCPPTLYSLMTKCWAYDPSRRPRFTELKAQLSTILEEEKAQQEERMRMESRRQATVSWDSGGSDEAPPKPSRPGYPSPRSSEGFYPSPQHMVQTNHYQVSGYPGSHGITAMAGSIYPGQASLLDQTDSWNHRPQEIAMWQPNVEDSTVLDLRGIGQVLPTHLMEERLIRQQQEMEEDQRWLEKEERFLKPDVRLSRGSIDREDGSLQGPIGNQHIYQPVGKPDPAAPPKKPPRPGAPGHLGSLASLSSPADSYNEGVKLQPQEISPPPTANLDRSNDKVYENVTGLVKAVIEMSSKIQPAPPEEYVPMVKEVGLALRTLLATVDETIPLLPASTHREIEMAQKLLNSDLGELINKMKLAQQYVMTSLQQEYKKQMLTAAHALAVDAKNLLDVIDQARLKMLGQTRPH

CN(C)C(CNC(=O)Nc1cc(C(F)(F)F)ccc1N1CCOCC1)c1cccnc1 (stereo not drawn) [Compound 5b, 1-(2-(Dimethylamino)-2-(pyridin-3-yl)ethyl)-3-(2-morpholino-5-(trifluoromethyl)phenyl)urea]
FAK-Tyr-397/FAK fold change, ± SEM (FAK; 100 nM): 1.0±0.04 fold change

CN(C)C(CNC(=O)Nc1cc(C(F)(F)F)ccc1N1CCOCC1)c1cccnc1.Cl (stereo not drawn) [Compound 5bHCl, 1-(2-(Dimethylamino)-2-(pyridin-3-yl)ethyl)-3-(2-morpholino-5-(trifluoromethyl)phenyl)urea hydrochloric salt]
FAK-Tyr-397/FAK fold change, ± SEM (FAK; 100 nM): 1.05±0.06 fold change

CN(C)C(CNC(=O)Nc1cc(C(F)(F)F)ccc1N1CCOCC1)c1ccccn1 (stereo not drawn) [Compound 5c, 1-(2-(Dimethylamino)-2-(pyridin-2-yl)ethyl)-3-(2-morpholino-5-(trifluoromethyl)phenyl)urea]
FAK-Tyr-397/FAK fold change, ± SEM (FAK; 100 nM): 0.84±0.11 fold change

CN(C)C(CNC(=O)Nc1cc(C(F)(F)F)ccc1N1CCOCC1)c1ccccn1.Cl (stereo not drawn) [Compound 5cHCl, 1-(2-(Dimethylamino)-2-(pyridin-2-yl)ethyl)-3-(2-morpholino-5-(trifluoromethyl)phenyl)urea hydrochloric salt]
FAK-Tyr-397/FAK fold change, ± SEM (FAK; 100 nM): 0.98±0.07 fold change

CC(C)(CNC(=O)Nc1cc(C(F)(F)F)ccc1N1CCOCC1)c1ccncc1 [Compound 6, 1-(2-Methyl-2-(pyridin-4-yl)propyl)-3-(2-morpholino-5-(trifluoromethyl)phenyl)urea]
FAK-Tyr-397/FAK fold change, ± SEM (FAK; 100 nM): 1.09±0.12 fold change

CC(C)(CNC(=O)Nc1cc(C(F)(F)F)ccc1N1CCOCC1)c1ccncc1.Cl [Compound 6HCl, 1-(2-Methyl-2-(pyridin-4-yl)propyl)-3-(2-morpholino-5-(trifluoromethyl)phenyl)urea hydrochloric salt]
FAK-Tyr-397/FAK fold change, ± SEM (FAK; 100 nM): 1.11±0.12 fold change

O=C(NCCc1ccncc1)Nc1cc(C(F)(F)F)ccc1N1CCOCC1 [Compound 7, 1-(2-Morpholino-5-(trifluoromethyl)phenyl)-3-(2-(pyridin-4-yl)ethyl)urea]
FAK-Tyr-397/FAK fold change, ± SEM (FAK; 100 nM): 0.98±0.07 fold change

Cl.O=C(NCCc1ccncc1)Nc1cc(C(F)(F)F)ccc1N1CCOCC1 [Compound 7HCl, 1-(2-Morpholino-5-(trifluoromethyl)phenyl)-3-(2-(pyridin-4-yl)ethyl)urea hydrochloric salt]
FAK-Tyr-397/FAK fold change, ± SEM (FAK; 100 nM): 0.91±0.13 fold change

O=C(NCCc1cnccn1)Nc1cc(C(F)(F)F)ccc1N1CCOCC1 [Compound 8, 1-(2-Morpholino-5-(trifluoromethyl)phenyl)-3-(2-(pyrazin-2-yl)ethyl)urea]
FAK-Tyr-397/FAK fold change, ± SEM (FAK; 100 nM): 0.93±0.08 fold change

Cl.O=C(NCCc1cnccn1)Nc1cc(C(F)(F)F)ccc1N1CCOCC1 [Compound 8HCl, 1-(2-Morpholino-5-(trifluoromethyl)phenyl)-3-(2-(pyrazin-2-yl)ethyl)urea hydrochloric salt]
FAK-Tyr-397/FAK fold change, ± SEM (FAK; 100 nM): 1.05±0.07 fold change

COC(=O)C(Cc1ccncc1)NC(=O)Nc1cc(C(F)(F)F)ccc1N1CCOCC1 (stereo not drawn) [Compound 9a, Methyl 2-(3-(2-Morpholino-5-(trifluoromethyl)phenyl)ureido)-3-(pyridin-4-yl)propanoate]
FAK-Tyr-397/FAK fold change, ± SEM (FAK; 100 nM): 1.03±0.08 fold change

COCCNC(=O)C(Cc1ccncc1)NC(=O)Nc1cc(C(F)(F)F)ccc1N1CCOCC1 (stereo not drawn) [Compound 9b, N-(2-Methoxyethyl)-2-(3-(2-morpholino-5-(trifluoromethyl)phenyl)ureido)-3-(pyridin-4-yl)propanamide]
FAK-Tyr-397/FAK fold change, ± SEM (FAK; 100 nM): 0.97±0.08 fold change

CN(C)C(CNC(=O)Nc1ccccc1N1CCOCC1)c1ccncc1 (stereo not drawn) [Compound 10a, 1-(2-(Dimethylamino)-2-(pyridin-4-yl)ethyl)-3-(2-morpholinophenyl)urea]
FAK-Tyr-397/FAK fold change, ± SEM (FAK; 100 nM): 1.23±0.07 fold change

CN(C)C(CNC(=O)Nc1cc(F)ccc1N1CCOCC1)c1ccncc1 (stereo not drawn) [Compound 10b, 1-(2-(Dimethylamino)-2-(pyridin-4-yl)ethyl)-3-(5-fluoro-2-morpholinophenyl)urea]
FAK-Tyr-397/FAK fold change, ± SEM (FAK; 100 nM): 1.12 fold change and 1.12±0.05 fold change

CN(C)C(CNC(=O)Nc1cc(F)ccc1N1CCOCC1)c1ccncc1.Cl (stereo not drawn) [Compound 10bHCl, 1-(2-(Dimethylamino)-2-(pyridin-4-yl)ethyl)-3-(5-fluoro-2-morpholinophenyl)urea hydrochloric salt]
Solubility [1]: 985 µg/mL | wound closure with proliferation inhibited (Caco-2 cells): accelerated | EC50 (Caco-2 cells): 2.36 ± 0.58 nM | Clint [2]: > 307 uL/min/mg protein | MLM t1/2 [2]: <4.51 min | hERG Inhibition % (hERG): 15.2% | FAK-Tyr-397/FAK fold change, ± SEM (FAK; 10 nM): 1.25 fold change | FAK-Tyr-397/FAK fold change, ± SEM (FAK; 100 nM): 1.39 fold change

Cc1ccc(N2CCOCC2)c(NC(=O)NCC(c2ccncc2)N(C)C)c1 (stereo not drawn) [Compound 10c, 1-(2-(Dimethylamino)-2-(pyridin-4-yl)ethyl)-3-(5-methyl-2-morpholinophenyl)urea]
FAK-Tyr-397/FAK fold change, ± SEM (FAK; 100 nM): 0.89±0.05 fold change

CN(C)C(CNC(=O)Nc1cc(C#N)ccc1N1CCOCC1)c1ccncc1 (stereo not drawn) [Compound 10d, 1-(5-Cyano-2-morpholinophenyl)-3-(2-(dimethylamino)-2-(pyridin-4-yl)ethyl)urea]
FAK-Tyr-397/FAK fold change, ± SEM (FAK; 100 nM): 0.83±0.07 fold change

CN(C)C(CNC(=O)Nc1cc(Cl)ccc1N1CCOCC1)c1ccncc1 (stereo not drawn) [Compound 10e, 1-(5-Chloro-2-morpholinophenyl)-3-(2-(dimethylamino)-2-(pyridin-4-yl)ethyl)urea]
FAK-Tyr-397/FAK fold change, ± SEM (FAK; 100 nM): 0.82±0.06 fold change

CN(C)C(CNC(=O)Nc1cc(C(F)F)ccc1N1CCOCC1)c1ccncc1 (stereo not drawn) [Compound 10f, 1-(5-(Difluoromethyl)-2-morpholinophenyl)-3-(2-(dimethylamino)-2-(pyridin-4-yl)ethyl)urea]
FAK-Tyr-397/FAK fold change, ± SEM (FAK; 100 nM): 1.2±0.08 fold change

CN(C)C(CNC(=O)Nc1cc(OC(F)(F)F)ccc1N1CCOCC1)c1ccncc1 (stereo not drawn) [Compound 10g, 1-(2-(Dimethylamino)-2-(pyridin-4-yl)ethyl)-3-(2-morpholino-5-(trifluoromethoxy)phenyl)urea]
FAK-Tyr-397/FAK fold change, ± SEM (FAK; 100 nM): 1.12±0.03 fold change

COc1ccc(N2CCOCC2)c(NC(=O)NCC(c2ccncc2)N(C)C)c1 (stereo not drawn) [Compound 10h, 1-(2-(Dimethylamino)-2-(pyridin-4-yl)ethyl)-3-(5-methoxy-2-morpholinophenyl)urea]
FAK-Tyr-397/FAK fold change, ± SEM (FAK; 100 nM): 1.29±0.07 fold change

COCOc1ccc(N2CCOCC2)c(NC(=O)NCC(c2ccncc2)N(C)C)c1 (stereo not drawn) [Compound 10i, 1-(2-(Dimethylamino)-2-(pyridin-4-yl)ethyl)-3-(5-(methoxymethoxy)-2-morpholinophenyl)urea]
FAK-Tyr-397/FAK fold change, ± SEM (FAK; 100 nM): 1.28±0.1 fold change

COCCOc1ccc(N2CCOCC2)c(NC(=O)NCC(c2ccncc2)N(C)C)c1 (stereo not drawn) [Compound 10j, 1-(2-(Dimethylamino)-2-(pyridin-4-yl)ethyl)-3-(5-(2-methoxyethoxy)-2-morpholinophenyl)urea]
FAK-Tyr-397/FAK fold change, ± SEM (FAK; 100 nM): 1.05±0.1 fold change

COCCOCCOc1ccc(N2CCOCC2)c(NC(=O)NCC(c2ccncc2)N(C)C)c1 (stereo not drawn) [Compound 10k, 1-(2-(Dimethylamino)-2-(pyridin-4-yl)ethyl)-3-(5-(2-(2-methoxyethoxy)ethoxy)-2-morpholinophenyl)urea]
FAK-Tyr-397/FAK fold change, ± SEM (FAK; 100 nM): 1.32±0.03 fold change

COCCOCCOc1ccc(N2CCOCC2)c(NC(=O)NCC(c2ccncc2)N(C)C)c1.Cl (stereo not drawn) [Compound 10kHCl, 1-(2-(Dimethylamino)-2-(pyridin-4-yl)ethyl)-3-(5-(2-(2-methoxyethoxy)ethoxy)-2-morpholinophenyl)urea hydrochloric salt]
Solubility [1]: 1018 µg/mL | wound closure with proliferation inhibited (Caco-2 cells): accelerated | EC50 (Caco-2 cells): 3.01 ± 0.51 nM | Clint [2]: 93.0 uL/min/mg protein | MLM t1/2 [2]: 14.9 min | hERG Inhibition % (hERG): 0.608%

COCCOCCOCCOc1ccc(N2CCOCC2)c(NC(=O)NCC(c2ccncc2)N(C)C)c1 (stereo not drawn) [Compound 10l, 1-(2-(Dimethylamino)-2-(pyridin-4-yl)ethyl)-3-(5-(2-(2-(2-methoxyethoxy)ethoxy)ethoxy)-2-morpholinophenyl)urea]
FAK-Tyr-397/FAK fold change, ± SEM (FAK; 100 nM): 1.13±0.1 fold change

CN(C)C(CNC(=O)Nc1cc(OCCOCCO)ccc1N1CCOCC1)c1ccncc1 (stereo not drawn) [Compound 10m, 1-(2-(Dimethylamino)-2-(pyridin-4-yl)ethyl)-3-(5-(2-(2-hydroxyethoxy)ethoxy)-2-morpholinophenyl)urea]
FAK-Tyr-397/FAK fold change, ± SEM (FAK; 100 nM): 0.93±0.1 fold change
